Measurements reported in patent publication US20100021398A1, “COMPOSITIONS AND METHODS FOR LIGHTENING SKIN AND PROTECTING SKIN FROM ULTRAVIOLET RADIATION WITH GLUTATHIONE” (priority 2008, published 2010).

Columns and labels:
[1] = unmodified glutathione, cited from earlier work
Mitochondrial SOD 2 = assay: up-regulation of anti-oxidant enzyme SOD by glutathione; assay type: cell-based; conditions: glutathione up-regulating anti-oxidant enzymes

## N[C@@H](CCC(=O)N[C@@H](CS)C(=O)NCC(=O)O)C(=O)O [glutathione]
[1]; blood stream
  half-life in the blood stream: about a minute and a half
[1]; blood
  half-life in the blood: around 120 seconds
Mitochondrial SOD 2
  SOD increase: 182%
